Laboratory results reported in patent US20050226913A1, “Article for inhibiting microbial growth in physiological fluids” (Eastman Kodak Company, priority 2004, published 2005).

Test: Stability constant (log βn) of ligand with Fe(III)
Details: Fe(III) (target) minus Ca (interfering), from Table 1
Description: Herein the stability constant for the reaction of a metal-ion (M) and a sequestrant or ligand (L) is defined as follows: M+nL⇄MLn
where the stability constant is βn=[MLn]/[M][L]^n, wherein [MLn] is the concentration of “complexed” metal-ion, [M] is the concentration of free (uncomplexed) metal-ion and [L] is the concentration of free ligand. The log of the stability constant is log βn, and n is the number of ligands, which coordinate with the metal.

O=C(O)CN(CCN(CC(=O)O)CC(=O)O)CCN(CC(=O)O)CC(=O)O [DTPA, diethylenetriaminepentaacetic acid]
selectivity: difference between the log stability constants: 17.2
